Measured values from patent US20070010671A1, “Novel quinazoline derivatives and methods of treatment related to the use thereof” (priority 2003, published 2007).
Where a name gives a salt, the structure may show the parent alone.

The compounds below were run against MCH receptor (Homo sapiens, UniProt Q99705) (assay: High throughput functional screening FLIPR/FDSS6000: inhibition of MCH-evoked intracellular Ca2+ changes). Settings: antagonist activity, 50 nM of MCH, FLIPR or FDSS; read-out: IC50.
Type: cell-based
In short: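 Fluo4 fluorescence (Ex 488 nm, Em 530 nm) tracked MCH-evoked [Ca2+]i transients over 290 s by FLIPR or FDSS. Cells carried a constitutively active, non-endogenous receptor version. Compounds were added 3 min before a 50 nM MCH challenge.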

IC50 [µM] | Compound
0.013 | CN(C)c1nc(N[C@H]2CC[C@@H](CNC(=O)Nc3cccc(Cl)c3Cl)CC2)nc2ccccc12 [Example 2, 1-(2,3-Dichloro-phenyl)-3-[cis-4-(4-dimethylamino-quinazolin-2-ylamino)-cyclohexylmethyl]-urea hydrochloride]

Same assay, conditions: class by percent of control at 10^-7 M or IC50

Compound | class
CC(NC(=O)NC[C@H]1CC[C@@H](Nc2nc(N(C)C)c3ccccc3n2)CC1)c1ccccc1 (relative stereo) [compound 465, N-[(cis-4-{[4-(dimethylamino)quinazolin-2-yl]amino}cyclohexyl)methyl]-N′-(1-phenylethyl)urea] | 2 (Class 2: The value of percent of control at 10^−7 M was from 40% to 60% or the value of IC50 was from 50 nM to 200 nM.)
CN(C)c1nc(N[C@H]2CC[C@@H](NC(=S)NCc3cccnc3)CC2)nc2ccccc12 [compound 396] | 3 (Class 3: The value of percent of control at 10^−7 M was more than 60% or the value of IC50 was more than 200 nM.)
CN(C)c1ccc(NC(=O)N[C@H]2CC[C@@H](Nc3nc(N(C)C)c4ccccc4n3)CC2)cc1 [compound 351] | 3 (Class 3: The value of percent of control at 10^−7 M was more than 60% or the value of IC50 was more than 200 nM.)
COc1ccc(NC(=S)NC[C@H]2CC[C@@H](Nc3nc(N(C)C)c4ccccc4n3)CC2)cc1OC [compound 628] | 3 (Class 3: The value of percent of control at 10^−7 M was more than 60% or the value of IC50 was more than 200 nM.)
COc1cccc(CNC(=S)NC[C@H]2CC[C@@H](Nc3nc(N(C)C)c4ccccc4n3)CC2)c1 [compound 733] | 3 (Class 3: The value of percent of control at 10^−7 M was more than 60% or the value of IC50 was more than 200 nM.)
Cc1ccc(CCNC(=S)NC[C@H]2CC[C@@H](Nc3nc(N(C)C)c4ccccc4n3)CC2)cc1 [compound 744] | 3 (Class 3: The value of percent of control at 10^−7 M was more than 60% or the value of IC50 was more than 200 nM.)
CCOC(=O)c1ccc(NC(=S)N[C@H]2CC[C@@H](Nc3nc(N(C)C)c4ccccc4n3)CC2)cc1 [compound 272] | 3 (Class 3: The value of percent of control at 10^−7 M was more than 60% or the value of IC50 was more than 200 nM.)
CN(C)c1nc(N[C@H]2CC[C@@H](CNC(=S)Nc3ccc(Br)cc3F)CC2)nc2ccccc12 [compound 658] | 3 (Class 3: The value of percent of control at 10^−7 M was more than 60% or the value of IC50 was more than 200 nM.)
CCCCc1ccc(NC(=O)N[C@H]2CC[C@@H](Nc3nc(N(C)C)c4ccccc4n3)CC2)c(C)c1 [compound 346] | 1 (Class 1: The value of percent of control at 10^−7 M was less than 40% or the value of IC50 was less than 50 nM.)
CN(C)c1nc(N[C@H]2CC[C@@H](CNC(=S)Nc3cccc(Br)c3)CC2)nc2ccccc12 [compound 581] | 3 (Class 3: The value of percent of control at 10^−7 M was more than 60% or the value of IC50 was more than 200 nM.)
CN(C)c1nc(N[C@H]2CC[C@@H](CNC(=O)Nc3cc(C(F)(F)F)cc(C(F)(F)F)c3)CC2)nc2ccccc12 [compound 409] | 3 (Class 3: The value of percent of control at 10^−7 M was more than 60% or the value of IC50 was more than 200 nM.)
CN(C)c1nc(N[C@H]2CC[C@@H](CNC(=O)Nc3cccc(C(F)(F)F)c3F)CC2)nc2ccccc12 [compound 495] | 3 (Class 3: The value of percent of control at 10^−7 M was more than 60% or the value of IC50 was more than 200 nM.)
Cc1cc(Br)ccc1NC(=O)NC[C@H]1CC[C@@H](Nc2nc(N(C)C)c3ccccc3n2)CC1 [compound 754] | 2 (Class 2: The value of percent of control at 10^−7 M was from 40% to 60% or the value of IC50 was from 50 nM to 200 nM.)
CN(C)c1nc(N[C@H]2CC[C@@H](CNC(=S)Nc3cccc(OCc4ccccc4)c3)CC2)nc2ccccc12 [compound 685] | 3 (Class 3: The value of percent of control at 10^−7 M was more than 60% or the value of IC50 was more than 200 nM.)
CN(C)c1nc(N[C@H]2CC[C@@H](CNC(=S)Nc3ccc(S(=O)(=O)N4CCCCC4)cc3)CC2)nc2ccccc12 [compound 778] | 3 (Class 3: The value of percent of control at 10^−7 M was more than 60% or the value of IC50 was more than 200 nM.)

Same assay, conditions: class by percent of control at 10^-7 M or by IC50; read-out: class

IC50 [µM] | Compound
> 0.2 | CN(C)c1nc(N[C@H]2CC[C@@H](NC(=S)Nc3cccc(C(F)(F)F)c3)CC2)nc2ccccc12 [compound 194]
> 0.2 | CN(C)c1nc(N[C@H]2CC[C@@H](NC(=S)Nc3ccccc3)CC2)nc2ccccc12 [compound 191]
> 0.2 | CCOC(=O)NC[C@H]1CC[C@@H](Nc2nc(N(C)C)c3ccccc3n2)CC1 [compound 874]
< 0.05 | CC(NC(=O)N[C@H]1CC[C@@H](Nc2nc(N(C)C)c3ccccc3n2)CC1)c1cccc2ccccc12 (stereo partly drawn) [compound 61, N-(cis-4-{[4-(dimethylamino)quinazolin-2-yl]amino}cyclohexyl)-N′-[1-(-napthyl)ethyl]urea]
> 0.2 | CCCCOc1ccc(NC(=O)N[C@H]2CC[C@@H](Nc3nc(N(C)C)c4ccccc4n3)CC2)cc1 [compound 831]

Compound | IC50 [µM]
CN(C)c1nc(N[C@H]2CC[C@@H](NC(=O)Oc3ccccc3)CC2)nc2ccccc12 [compound 859] | > 0.2

Same assay, conditions: class by percent of control at 10^−7 M or by IC50; read-out: class

IC50 [µM] | Compound
< 0.05 | CN(C)c1nc(N[C@H]2CC[C@@H](CNC(=O)c3c(Cl)cc(Cl)cc3Cl)C2)nc2ccccc12 [Example 1123, 2,4,6-trichloro-N-[((1R,3S)-3-{[4-(dimethylamino)quinazolin-2-yl]amino}cyclopentyl)methyl]benzamide]
< 0.05 | Cc1c(Cl)cccc1CNC(=O)[C@H]1CC[C@@H](Nc2nc(N(C)C)c3ccccc3n2)CC1 [Example 1144, cis-N-(3-chloro-2-methylbenzyl)-4-{[4-(dimethylamino)quinazolin-2-yl]amino}cyclohexanecarboxamide]
< 0.05 | Cc1ccc(Cl)c(CNC(=O)[C@H]2CC[C@@H](Nc3nc(N(C)C)c4ccccc4n3)CC2)c1F [Example 1150, cis-N-(6-chloro-2-fluoro-3-methylbenzyl)-4-{[4-(dimethylamino)quinazolin-2-yl]amino}cyclohexanecarboxamide]
0.05 to 0.2 | CCOc1ccccc1NC(=O)NC[C@H]1CC[C@@H](Nc2nc(N(C)C)c3ccccc3n2)CC1 [Example 1016, N-[(cis-4-{[4-(dimethylamino)quinazolin-2-yl]amino}cyclohexyl)methyl]-N′-(2-ethoxyphenyl)urea]
< 0.05 | CN(C)c1nc(N[C@H]2CC[C@@H](CNC(=O)c3cccc(C(F)(F)F)c3)C2)nc2ccccc12 [Example 1127, N-[((1R,3S)-3-{[4-(dimethylamino)quinazolin-2-yl]amino}cyclopentyl)methyl]-3-(trifluoromethyl)benzamide]
0.05 to 0.2 | CN(C)c1nc(N[C@H]2CC[C@@H](CNC(=O)[C@H](O)c3ccccc3Cl)CC2)nc2ccccc12 [Example 1101, (2R)-2-(2-chlorophenyl)-N-[(cis-4-{[4-(dimethylamino)-quinazolin-2-yl]amino}cyclohexyl)methyl]-2-hydroxyacetamide]
< 0.05 | CN(C)c1nc(N[C@H]2CC[C@@H](NC(=O)c3ccnc(Oc4ccc(Cl)cc4)c3)CC2)nc2ccccc12 [Example 1074, 2-(4-chlorophenoxy)-N-(cis-4-{[4-(dimethylamino)quinazolin-2-yl]amino}cyclohexyl)isonicotinamide]
